Test results from patent US12065443B2, “Compounds and pharmaceutical compositions thereof for the treatment of diseases” (priority 2017, dated 2024).

Experiments:
Test in all cases: biochemical
SIK1 = target: T1, SIK1 (Homo sapiens, UniProt P57059); details: 33P radioactive SIK kinase assay, AMARA peptide, 10 μM ATP; read-out: SIK1 IC50
T1 construct: purchased Carna Biosciences 02-131
Method: (§1) The principle of the ^33P radioactive kinase assay consists in measuring the incorporated ^33P into the substrate AMARA peptide when phosphorylated by SIK1, SIK2 or SIK3 using [^33P]-g-ATP, which correlates with kinase activity.
(§2) 1% DMSO and 10 μM staurosporine final concentrations are used as negative and positive controls.
(§3) 11 μL of enzyme-substrate mixture is added on the assay plates. The reactions are started by adding 9 μL ATP mixture, consisting of non-labeled and ^33P-labeled ATP, on the assay plates.
(§4) The reactions are stopped by adding 25 μL phosphoric acid (150 mM) to the reactions.
(§5) After harvesting the kinase reactions, the filter plates are washed 6 times with phosphoric acid (75 mM). […] The top of the plates are sealed with TopSeal-A. Read-out is performed with a TopCount instrument (PerkinElmer Inc.).

SIK2 = target: T2, SIK2 (Homo sapiens, UniProt Q9H0K1); details: 33P radioactive SIK kinase assay, AMARA peptide, 10 μM ATP
T2 construct: purchased ThermoFisher Scientific PV4792
T2 sequence (Q9H0K1 whole entry): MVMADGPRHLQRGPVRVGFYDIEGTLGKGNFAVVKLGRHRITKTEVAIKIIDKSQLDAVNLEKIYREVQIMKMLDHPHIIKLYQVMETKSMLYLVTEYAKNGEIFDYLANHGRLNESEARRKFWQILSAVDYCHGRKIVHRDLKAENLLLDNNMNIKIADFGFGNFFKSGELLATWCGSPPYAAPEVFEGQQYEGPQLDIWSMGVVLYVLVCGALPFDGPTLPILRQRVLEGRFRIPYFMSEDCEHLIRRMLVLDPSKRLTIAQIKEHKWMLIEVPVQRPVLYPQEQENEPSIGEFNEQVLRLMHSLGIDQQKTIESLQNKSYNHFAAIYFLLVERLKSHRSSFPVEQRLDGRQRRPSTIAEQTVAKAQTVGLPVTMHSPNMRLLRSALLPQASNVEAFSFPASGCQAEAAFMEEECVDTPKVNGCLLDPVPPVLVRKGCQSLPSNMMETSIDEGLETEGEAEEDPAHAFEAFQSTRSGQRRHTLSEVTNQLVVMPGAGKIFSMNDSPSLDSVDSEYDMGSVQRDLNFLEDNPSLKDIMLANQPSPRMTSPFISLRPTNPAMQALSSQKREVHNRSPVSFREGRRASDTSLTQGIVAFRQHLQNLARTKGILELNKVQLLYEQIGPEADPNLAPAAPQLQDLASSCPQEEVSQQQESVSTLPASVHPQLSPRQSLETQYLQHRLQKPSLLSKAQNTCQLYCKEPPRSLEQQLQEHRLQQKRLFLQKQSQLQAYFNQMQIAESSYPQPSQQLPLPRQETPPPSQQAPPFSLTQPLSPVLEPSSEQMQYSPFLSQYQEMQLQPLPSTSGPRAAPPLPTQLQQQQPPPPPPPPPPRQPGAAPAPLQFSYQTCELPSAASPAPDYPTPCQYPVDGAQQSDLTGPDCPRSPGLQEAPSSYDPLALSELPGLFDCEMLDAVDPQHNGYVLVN
Method: as §1, §2, §3, §4, §5

SIK3 = target: T3, SIK3 (Homo sapiens, UniProt Q9Y2K2)
T3 construct: purchased SignalChem S12-11G-100
T3 sequence (Q9Y2K2 whole entry): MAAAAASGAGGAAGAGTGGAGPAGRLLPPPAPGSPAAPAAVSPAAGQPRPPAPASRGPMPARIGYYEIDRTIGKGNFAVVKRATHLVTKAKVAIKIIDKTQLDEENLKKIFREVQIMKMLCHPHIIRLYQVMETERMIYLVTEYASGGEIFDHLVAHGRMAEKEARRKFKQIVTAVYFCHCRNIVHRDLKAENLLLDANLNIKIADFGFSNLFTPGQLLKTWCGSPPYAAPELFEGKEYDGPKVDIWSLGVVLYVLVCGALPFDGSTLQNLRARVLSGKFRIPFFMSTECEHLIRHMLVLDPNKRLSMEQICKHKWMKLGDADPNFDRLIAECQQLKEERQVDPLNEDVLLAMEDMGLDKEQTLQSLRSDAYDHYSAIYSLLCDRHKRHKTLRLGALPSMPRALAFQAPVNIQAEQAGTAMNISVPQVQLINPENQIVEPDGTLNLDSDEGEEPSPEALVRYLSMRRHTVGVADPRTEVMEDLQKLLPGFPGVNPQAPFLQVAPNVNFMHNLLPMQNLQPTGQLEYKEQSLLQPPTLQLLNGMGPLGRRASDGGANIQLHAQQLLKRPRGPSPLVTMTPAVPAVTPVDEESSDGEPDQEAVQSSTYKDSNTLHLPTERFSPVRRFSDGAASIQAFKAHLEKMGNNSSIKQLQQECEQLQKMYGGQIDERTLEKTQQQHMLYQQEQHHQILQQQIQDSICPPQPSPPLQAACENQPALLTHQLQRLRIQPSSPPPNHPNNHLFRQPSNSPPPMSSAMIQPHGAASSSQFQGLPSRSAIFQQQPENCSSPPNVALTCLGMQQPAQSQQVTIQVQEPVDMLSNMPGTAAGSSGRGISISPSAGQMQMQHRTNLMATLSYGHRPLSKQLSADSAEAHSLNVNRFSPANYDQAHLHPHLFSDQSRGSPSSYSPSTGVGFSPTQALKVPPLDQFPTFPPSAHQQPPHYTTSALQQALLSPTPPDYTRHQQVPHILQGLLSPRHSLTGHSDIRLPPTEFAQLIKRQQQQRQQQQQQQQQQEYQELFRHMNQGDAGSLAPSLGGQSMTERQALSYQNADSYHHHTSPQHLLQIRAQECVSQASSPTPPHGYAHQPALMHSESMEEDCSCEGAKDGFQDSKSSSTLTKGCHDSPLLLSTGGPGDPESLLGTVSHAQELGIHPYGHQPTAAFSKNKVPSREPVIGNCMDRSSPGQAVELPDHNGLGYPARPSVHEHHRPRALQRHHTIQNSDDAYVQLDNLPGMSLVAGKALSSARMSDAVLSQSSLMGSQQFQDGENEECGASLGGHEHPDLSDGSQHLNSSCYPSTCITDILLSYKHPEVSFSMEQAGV
Method: as §1, §2, §3, §4, §5

T1 sequence (P57059 whole entry): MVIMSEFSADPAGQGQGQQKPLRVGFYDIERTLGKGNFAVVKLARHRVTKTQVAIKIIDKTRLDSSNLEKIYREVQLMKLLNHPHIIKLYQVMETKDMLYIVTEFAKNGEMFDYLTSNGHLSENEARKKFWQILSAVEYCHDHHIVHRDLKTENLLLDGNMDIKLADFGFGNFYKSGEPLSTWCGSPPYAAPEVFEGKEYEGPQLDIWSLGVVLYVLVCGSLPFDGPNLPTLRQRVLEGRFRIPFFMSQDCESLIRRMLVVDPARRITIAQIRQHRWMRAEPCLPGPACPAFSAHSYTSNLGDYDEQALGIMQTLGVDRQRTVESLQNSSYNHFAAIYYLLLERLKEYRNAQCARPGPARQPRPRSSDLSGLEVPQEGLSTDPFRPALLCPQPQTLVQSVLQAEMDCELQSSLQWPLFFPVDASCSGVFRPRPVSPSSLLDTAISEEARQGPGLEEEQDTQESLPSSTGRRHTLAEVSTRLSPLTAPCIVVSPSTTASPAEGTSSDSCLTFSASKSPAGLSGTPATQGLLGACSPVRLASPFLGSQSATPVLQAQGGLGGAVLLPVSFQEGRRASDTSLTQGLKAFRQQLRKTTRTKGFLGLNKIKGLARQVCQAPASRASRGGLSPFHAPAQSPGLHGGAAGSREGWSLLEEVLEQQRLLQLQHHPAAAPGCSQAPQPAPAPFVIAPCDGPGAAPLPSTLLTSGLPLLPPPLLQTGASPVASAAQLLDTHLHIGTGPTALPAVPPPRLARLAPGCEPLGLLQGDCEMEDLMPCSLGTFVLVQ

Row | IC50 (SIK1) | IC50 (SIK2) | IC50 (SIK3) | Compound
1 | 10 to 100 nM | 10 to 100 nM | 10 to 100 nM | COc1cc(-n2cnc3cc(-c4cnn(C)c4)ccc32)cc(OC)c1C(=O)NC1CCC[C@H]1O (stereo in doubt) [compound 140, N-[(1R,2R)-2-hydroxycyclopentyl]-2,6-dimethoxy-4-[5-(1-methylpyrazol-4-yl)benzimidazol-1-yl]benzamide]
2 | 10 to 100 nM | 10 to 100 nM | 10 to 100 nM | COc1cc(-n2cnc3cc(-c4cnn(C)c4)ccc32)cc(OC)c1C(=O)NC1CCC[C@@H]1O (stereo in doubt) [compound 141, N-[(1R,2S)-2-hydroxycyclopentyl]-2,6-dimethoxy-4-[5-(1-methylpyrazol-4-yl)benzimidazol-1-yl]benzamide]
3 | 100 to 500 nM | 10 to 100 nM | 100 to 500 nM | COc1cc(-n2cnc3cc(-c4cnn(C)c4)ccc32)cc(OC)c1C(=O)Nc1cnc(C)cn1 [Cpd 70, 2,6-dimcthoxy-N-(5-methylpyrazin-2-yl)-4-[5-(1-methylpyrazol-4-yl)benzimidazol-1-yl]benzamide]
4 | 100 to 500 nM | 100 to 500 nM | 100 to 500 nM | COc1cc(-n2cnc3cc(-c4cnn(C)c4)ccc32)cc(OC(C)C)c1C(=O)NC1CC1 [Cpd 119, N-cyclopropyl-2-isopropoxy-6-methoxy-4-[5-(1-methylpyrazol-4-yl)benzimidazol-1-yl]benzamide]
5 | 100 to 500 nM | 10 to 100 nM | 10 to 100 nM | CCn1cc(-c2ccc3c(c2)ncn3-c2cc(OC)c(C(=O)NCCO)c(OC)c2)cn1 [compound 5, 4-[5-(1-ethylpyrazol-4-yl)benzimidazol-1-yl]-N-(2-hydroxyethyl)-2,6-dimethoxy-benzamide]
6 | 100 to 500 nM | 10 to 100 nM | 100 to 500 nM | CCNC(=O)c1c(OC)cc(-n2cnc3cc(-c4cn(C)nc4C)ccc32)cc1OC [compound 8, 4-[5-(1,3-dimethylpyrazol-4-yl)benzimidazol-1-yl]-N-ethyl-2,6-dimethoxy-benzamide]
7 | 10 to 100 nM | 10 to 100 nM | 10 to 100 nM | CCn1cc(-c2ccc3c(c2)ncn3-c2cc(OC)c(C(=O)NC3CCCC3)c(OC)c2)cn1 [compound 45, N-cyclopentyl-4-[5-(1-ethylpyrazol-4-yl)benzimidazol-1-yl]-2,6-dimethoxy-benzamide]

The remaining lines, values behind:

Row | Compound | IC50 (SIK1) | IC50 (SIK2) | IC50 (SIK3)
8 | COc1cc(-n2cnc3cc(-n4ccc(C)n4)ccc32)cc(OC)c1C(=O)NCC(F)(F)F [Cpd 154, 2,6-dimethoxy-4-[5-(3-methylpyrazol-1-yl)benzimidazol-1-yl]-N-(2,2,2-trifluoroethyl)benzamide] | 100 to 500 nM | 100 to 500 nM | 100 to 500 nM
9 | COc1cc(-n2cnc3cc(-n4nc(C)cc4C)ccc32)cc(OC)c1C(=O)NCC(F)(F)F [Cpd 165, 4-[5-(3,5-dimethylpyrazol-1-yl)benzimidazol-1-yl]-2,6-dimethoxy-N-(2,2,2-trifluoroethyl)benzamide] | > 500 nM | > 500 nM | > 500 nM
10 | COc1cc(-n2cnc3cc(-n4cnc(C)n4)ccc32)cc(OC)c1C(=O)NCC(F)(F)F [Cpd 166, 2,6-dimethoxy-4-[5-(3-methyl-1,2,4-triazol-1-yl)benzimidazol-1-yl]-N-(2,2,2-trifluoroethyl)benzamide] | > 500 nM | > 500 nM | 100 to 500 nM
11 | COc1cc(-n2cnc3cc(-c4nnc(C)o4)ccc32)cc(OC)c1C(=O)NCC(F)(F)F [Cpd 167, 2,6-dimethoxy-4-[5-(5-methyl-1,3,4-oxadiazol-2-yl)benzimidazol-1-yl]-N-(2,2,2-trifluoroethyl)benzamide] | > 500 nM | > 500 nM | 100 to 500 nM
12 | COc1cc(-n2cnc3cc(-c4nnc(C)n4C)ccc32)cc(OC)c1C(=O)NCC(F)(F)F [Cpd 168, 4-[5-(4,5-dimethyl-1,2,4-triazol-3-yl)benzimidazol-1-yl]-2,6-dimethoxy-N-(2,2,2-trifluoroethyl)benzamide] | > 500 nM | > 500 nM | > 500 nM
13 | COc1cc(-n2cnc3cc(-c4nc(C)no4)ccc32)cc(OC)c1C(=O)NCC(F)(F)F [Cpd 169, 2,6-dimethoxy-4-[5-(3-methyl-1,2,4-oxadiazol-5-yl)benzimidazol-1-yl]-N-(2,2,2-trifluoroethyl)benzamide] | > 500 nM | > 500 nM | > 500 nM
14 | CCNC(=O)c1c(O)cc(-n2cnc3cc(-c4cnn(CC)c4)ccc32)cc1OC [compound 23, N-ethyl-4-[5-(1-ethylpyrazol-4-yl)benzimidazol-1-yl]-2-hydroxy-6-methoxy-benzamide] | 10 to 100 nM | 10 to 100 nM | 10 to 100 nM
15 | CCn1cc(-c2ccc3c(c2)ncn3-c2cc(OC)c(C(=O)N(C)CCOC)c(OC)c2)cn1 [compound 27, 4-[5-(1-ethylpyrazol-4-yl)benzimidazol-1-yl]-2,6-dimethoxy-N-(2-methoxyethyl)-N-methyl-benzamide] | > 500 nM | > 500 nM | > 500 nM
16 | CCn1cc(-c2ccc3c(c2)ncn3-c2cc(OC)c(C(=O)N(C)CC(C)C)c(OC)c2)cn1 [compound 28, 4-[5-(1-ethylpyrazol-4-yl)benzimidazol-1-yl]-N-isobutyl-2,6-dimethoxy-N-methyl-benzamide] | > 500 nM | > 500 nM | > 500 nM
17 | CCn1cc(-c2ccc3c(c2)ncn3-c2cc(OC)c(C(=O)N(C)CC#N)c(OC)c2)cn1 [compound 31, N-(cyanomethyl)-4-[5-(1-ethylpyrazol-4-yl)benzimidazol-1-yl]-2,6-dimethoxy-N-methyl-benzamide] | 100 to 500 nM | 100 to 500 nM | 10 to 100 nM
18 | COc1cncc(-c2ccc3c(c2)ncn3-c2cc(OC)c(C(=O)NCC(F)(F)F)c(OC)c2)c1 [compound 35, 2,6-dimethoxy-4-[5-(5-methoxy-3-pyridyl)benzimidazol-1-yl]-N-(2,2,2-trifluoroethyl)benzamide] | 100 to 500 nM | 100 to 500 nM | 10 to 100 nM
19 | COc1cc(-n2cnc3cc(-c4ccc(C#N)nc4)ccc32)cc(OC)c1C(=O)NCC(F)(F)F [compound 36, 4-[5-(6-cyano-3-pyridyl)benzimidazol-1-yl]-2,6-dimethoxy-N-(2,2,2-trifluoroethyl)benzamide] | 100 to 500 nM | 10 to 100 nM | 10 to 100 nM
20 | COc1cc(-n2cnc3cc(-c4ccc(N(C)C)nc4)ccc32)cc(OC)c1C(=O)NCC(F)(F)F [compound 37, 4-[5-[6-(dimethylamino)-3-pyridyl]benzimidazol-1-yl]-2,6-dimethoxy-N-(2,2,2-trifluoroethyl)benzamide] | 100 to 500 nM | 100 to 500 nM | 100 to 500 nM
21 | COc1cc(-n2cnc3cc(-c4ccc(N)nc4)ccc32)cc(OC)c1C(=O)NCC(F)(F)F [compound 38, 4-[5-(6-amino-3-pyridyl)benzimidazol-1-yl]-2,6-dimethoxy-N-(2,2,2-trifluoroethyl)benzamide] | 100 to 500 nM | 10 to 100 nM | 10 to 100 nM
22 | COc1cc(-n2cnc3cc(-c4cccnc4)ccc32)cc(OC)c1C(=O)NCC(F)(F)F [compound 39, 2,6-dimethoxy-4-[5-(3-pyridyl)benzimidazol-1-yl]-N-(2,2,2-trifluoroethyl)benzamide] | 100 to 500 nM | 10 to 100 nM | 10 to 100 nM
